The source made the active and inactive calls.
Experiments:
Prothrombin = Prothrombin (Bos taurus, UniProt P00735); test: thrombin inhibition, dose response, biochemical, fluorescence polarization, uHTS hits (AID 602369); assay type: functional
[1] = target: T1, Sentrin-specific protease 1 (Homo sapiens, UniProt Q9P0U3); test: potency of human SENP1 inhibitors, dose response, biochemical, kinetic FRET (AID 651697); assay type: functional; details: read-out: IC50_Mean
[2] = target: 72 kDa type IV collagenase (Homo sapiens, UniProt P08253); test: Dose Response validation of uHTS RPN11 inhibitor hits using a MMP-2 Fluorescence assay.; assay type: functional
[3] = target: T1, Sentrin-specific protease 1; test: Dose response confirmation of small molecule inhibitors of the catalytic domain of the SUMO protease, SENP1 in a FRET assay.; assay type: functional; details: read-out: IC50_Mean
[4] = target: 26S proteasome non-ATPase regulatory subunit 14 (Homo sapiens, UniProt O00487); test: inhibition of proteasome subunit RPN11 – biochemical, fluorescence polarization, uHTS hits, confirmation (AID 602368); assay type: functional
[5] = target: T2, Rac GTPase-activating protein 1 (Homo sapiens, UniProt Q9H0H5); test: MgcRacGAP GTPase-activating activity inhibitors, confirmation, biochemical, ADP Hunter fluorescence, primary and confirmatory (AID 624330); assay type: functional
T2 sequence (Q9H0H5 whole entry): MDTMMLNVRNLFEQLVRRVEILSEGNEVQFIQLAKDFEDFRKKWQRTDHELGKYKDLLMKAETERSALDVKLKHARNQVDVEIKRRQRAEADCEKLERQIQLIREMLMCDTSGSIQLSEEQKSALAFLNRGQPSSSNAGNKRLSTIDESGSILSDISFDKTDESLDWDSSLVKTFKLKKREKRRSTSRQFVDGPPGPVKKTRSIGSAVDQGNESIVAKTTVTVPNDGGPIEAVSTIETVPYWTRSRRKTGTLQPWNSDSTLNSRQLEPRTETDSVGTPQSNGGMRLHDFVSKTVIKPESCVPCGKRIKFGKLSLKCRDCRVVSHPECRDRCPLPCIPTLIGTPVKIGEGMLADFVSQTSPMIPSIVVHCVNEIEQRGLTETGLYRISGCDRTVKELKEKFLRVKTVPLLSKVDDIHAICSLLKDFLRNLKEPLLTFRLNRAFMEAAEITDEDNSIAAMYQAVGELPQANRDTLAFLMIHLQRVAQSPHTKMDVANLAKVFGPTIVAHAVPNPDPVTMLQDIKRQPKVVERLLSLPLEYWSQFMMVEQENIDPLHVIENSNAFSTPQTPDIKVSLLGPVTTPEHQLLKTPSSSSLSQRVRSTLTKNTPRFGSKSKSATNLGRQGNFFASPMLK

[6] = Fluorescence-based cell-based high throughput dose response assay for inhibitors of the interaction of nucleotide-binding oligomerization domain containing 2 (NOD2) and the receptor-interacting serine-threonine kinase 2 (RIPK2).; assay type: functional; details: Homo sapiens
Beta Lactamase = Beta Lactamase (Pseudomonas aeruginosa, UniProt Q932Y6); test: beta-lactamase reporter inhibitor potency, dose response, artefact control for NOD2-RIPK2 interaction inhibitor project, BLA reporter cells, FRET fluorescence (AID 651552); assay type: functional, cell-based
[7] = target: Glucose-6-phosphate 1-dehydrogenase (Homo sapiens, UniProt P11413); test: human G6PD enzyme inhibitors, dose response, selectivity assay for P. falciparum G6PD inhibitor project, biochemical, fluorescence (AID 504792); assay type: functional
[8] = target: T3, Voltage-gated N-type calcium channel alpha-1B subunit/Amyloid beta A4 precursor protein-binding family A member 1 (Homo sapiens, UniProt Q00975+Q02410); assay type: protein assay
Large T antigen = Large T antigen (Simian virus 40, UniProt P03070); assay type: functional, Betapolyomavirus macacae;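 note: Confirmatory-stage PubChem screen for compounds that inhibit SV40 T antigen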
[9] = target: T3, Voltage-gated N-type calcium channel alpha-1B subunit/Amyloid beta A4 precursor protein-binding family A member 1; assay type: protein assay; remark: listed apart in the source
[10] = target: Mitogen-activated protein kinase 10 (Homo sapiens, UniProt P53779); test: Dose response biochemical screening assay for inhibitors of c-Jun N-Terminal Kinase 3 (JNK3). [Related pubchem assays: 746 ]
Beta-lactamase [11] = target: Beta-lactamase (Salmonella choleraesuis (strain SC-B67), UniProt Q5J463)
Beta-lactamase [12] = target: Beta-lactamase (Pseudomonas aeruginosa, UniProt Q79MP6);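 note: biochemical dose-response test of metallo-beta-lactamase enzyme inhibition, read out by epi-absorbance; purified recombinant IMP-1 metallo-beta-lactamase with nitrocefin as substrate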
[13] = target: T4, Short transient receptor potential channel 4 (Mus musculus, UniProt Q9QUQ5); test: mouse TRPC4 channel activators, dose response, cell-based, HEK293 TRPC4/mu-opioid, Fluo-4 calcium (AID 434937); assay type: functional
T4 sequence (Q9QUQ5 whole entry): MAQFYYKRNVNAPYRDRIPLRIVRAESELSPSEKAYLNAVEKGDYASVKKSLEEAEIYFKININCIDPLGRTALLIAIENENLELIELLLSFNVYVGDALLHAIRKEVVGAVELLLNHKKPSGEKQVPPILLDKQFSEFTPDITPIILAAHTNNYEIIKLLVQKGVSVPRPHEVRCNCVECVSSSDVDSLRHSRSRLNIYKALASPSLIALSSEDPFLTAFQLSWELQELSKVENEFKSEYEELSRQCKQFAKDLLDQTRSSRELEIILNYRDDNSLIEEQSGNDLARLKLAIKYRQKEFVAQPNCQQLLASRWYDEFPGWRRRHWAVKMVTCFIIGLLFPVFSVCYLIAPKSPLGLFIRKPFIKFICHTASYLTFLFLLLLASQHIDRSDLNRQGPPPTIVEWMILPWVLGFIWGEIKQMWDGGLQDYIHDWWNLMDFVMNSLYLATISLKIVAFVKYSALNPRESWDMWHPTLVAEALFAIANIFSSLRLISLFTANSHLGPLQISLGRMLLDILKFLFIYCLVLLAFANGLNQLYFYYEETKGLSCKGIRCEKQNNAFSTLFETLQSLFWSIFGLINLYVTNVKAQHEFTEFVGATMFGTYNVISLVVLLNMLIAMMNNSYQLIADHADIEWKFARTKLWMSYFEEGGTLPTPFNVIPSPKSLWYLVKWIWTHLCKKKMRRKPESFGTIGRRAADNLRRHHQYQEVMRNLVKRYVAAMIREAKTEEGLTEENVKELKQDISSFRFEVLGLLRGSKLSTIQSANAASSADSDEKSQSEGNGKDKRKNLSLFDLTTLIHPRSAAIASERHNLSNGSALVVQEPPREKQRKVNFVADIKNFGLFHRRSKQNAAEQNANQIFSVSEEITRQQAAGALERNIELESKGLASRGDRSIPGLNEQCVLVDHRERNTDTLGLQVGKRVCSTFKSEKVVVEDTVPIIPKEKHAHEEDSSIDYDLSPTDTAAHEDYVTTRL

[14] = target: 5-hydroxytryptamine receptor 2A (Mus musculus, UniProt P35363); assay type: functional, cell-based;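 note: CHO-K1 cells with tagged receptor and beta-arrestin; agonist potency measured as compound-induced activation of the receptor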
Mu-type opioid receptor = Mu-type opioid receptor (Homo sapiens, UniProt P35372); assay type: functional, cell-based;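 note: U2OS cells with beta-arrestin recruitment to OPRM1 by beta-gal complementation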
[15] = target: T5, Probable nicotinate-nucleotide adenylyltransferase (Staphylococcus aureus (strain N315), UniProt P65502); assay type: functional, Staphylococcus aureus subsp. aureus N315; details: read-out: IC50_Mean;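 for IC50 Mean: confirmatory dose-response retesting of NadD inhibitor hits first found in an ultra-high-throughput screen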
[16] = target: T5, Probable nicotinate-nucleotide adenylyltransferase; assay type: functional, Staphylococcus aureus subsp. aureus N315
[17] = target: Eukaryotic translation initiation factor 4E (Mus musculus, UniProt P63073); test: eIF4E–eIF4G protein interaction inhibitors, dose response, biochemical, TR-FRET (AID 855); assay type: functional;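 note: potency for disrupting eIF4E binding to eIF4GI seen as loss of FRET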
[18] = target: T6, Methionyl-tRNA synthetase, putative (Trypanosoma brucei brucei, UniProt Q38C91); assay type: functional, Trypanosoma brucei brucei strain 927/4 GUTat10.1
T6 sequence (Q38C91 whole entry): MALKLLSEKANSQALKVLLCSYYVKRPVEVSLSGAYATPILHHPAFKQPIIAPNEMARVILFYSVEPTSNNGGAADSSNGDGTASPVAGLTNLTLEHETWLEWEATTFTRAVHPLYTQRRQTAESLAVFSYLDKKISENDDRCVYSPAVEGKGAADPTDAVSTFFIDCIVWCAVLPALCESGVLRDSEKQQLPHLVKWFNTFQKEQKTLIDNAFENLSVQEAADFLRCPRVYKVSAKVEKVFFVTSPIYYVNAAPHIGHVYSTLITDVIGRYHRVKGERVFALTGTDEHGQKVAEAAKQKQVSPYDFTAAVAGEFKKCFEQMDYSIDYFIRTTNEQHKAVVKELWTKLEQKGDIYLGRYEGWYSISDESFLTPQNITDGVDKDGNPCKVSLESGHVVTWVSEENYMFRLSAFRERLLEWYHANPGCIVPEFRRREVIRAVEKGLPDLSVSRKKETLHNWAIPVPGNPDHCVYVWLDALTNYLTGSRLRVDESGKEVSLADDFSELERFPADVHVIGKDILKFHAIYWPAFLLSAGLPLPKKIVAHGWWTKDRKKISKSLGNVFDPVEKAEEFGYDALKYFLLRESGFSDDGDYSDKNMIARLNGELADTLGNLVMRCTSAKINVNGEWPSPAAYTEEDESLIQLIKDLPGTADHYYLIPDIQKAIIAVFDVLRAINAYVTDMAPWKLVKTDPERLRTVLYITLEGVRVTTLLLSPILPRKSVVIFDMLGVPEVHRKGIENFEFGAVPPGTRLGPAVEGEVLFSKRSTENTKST

[19] = target: T6, Methionyl-tRNA synthetase, putative; assay type: functional, Trypanosoma brucei brucei strain 927/4 GUTat10.1; remark: listed apart in the source
[20] = Counterscreen for IDE inhibitors: Luminescence-based cell-based high throughput dose response assay to identify compounds that are cytotoxic to HEK cells. [Related pubchem assays: 434962 (Primary screen (IDE inhibitors in singlicate)), 449730 (Counterscreen (Cytotoxicity in triplicate)), 435028 (Confirmation (IDE inhibitors in triplicate)) …; assay type: functional; details: HEK293
Insulin-degrading enzyme = target: T7, Insulin-degrading enzyme (Homo sapiens, UniProt P14735); test: Dose Response: Fluorescence polarization-based cell-based high throughput dose response assay for inhibitors of insulin-degrading enzyme (IDE). [Related pubchem assays: 434962 (Primary screen (IDE inhibitors in singlicate)), 449730 (Counterscreen (Cytotoxicity in triplicate)), 435028 (Confirmation (IDE inhibitors in triplicate)), 434984 (Summary …; assay type: functional
T7 sequence (P14735 whole entry): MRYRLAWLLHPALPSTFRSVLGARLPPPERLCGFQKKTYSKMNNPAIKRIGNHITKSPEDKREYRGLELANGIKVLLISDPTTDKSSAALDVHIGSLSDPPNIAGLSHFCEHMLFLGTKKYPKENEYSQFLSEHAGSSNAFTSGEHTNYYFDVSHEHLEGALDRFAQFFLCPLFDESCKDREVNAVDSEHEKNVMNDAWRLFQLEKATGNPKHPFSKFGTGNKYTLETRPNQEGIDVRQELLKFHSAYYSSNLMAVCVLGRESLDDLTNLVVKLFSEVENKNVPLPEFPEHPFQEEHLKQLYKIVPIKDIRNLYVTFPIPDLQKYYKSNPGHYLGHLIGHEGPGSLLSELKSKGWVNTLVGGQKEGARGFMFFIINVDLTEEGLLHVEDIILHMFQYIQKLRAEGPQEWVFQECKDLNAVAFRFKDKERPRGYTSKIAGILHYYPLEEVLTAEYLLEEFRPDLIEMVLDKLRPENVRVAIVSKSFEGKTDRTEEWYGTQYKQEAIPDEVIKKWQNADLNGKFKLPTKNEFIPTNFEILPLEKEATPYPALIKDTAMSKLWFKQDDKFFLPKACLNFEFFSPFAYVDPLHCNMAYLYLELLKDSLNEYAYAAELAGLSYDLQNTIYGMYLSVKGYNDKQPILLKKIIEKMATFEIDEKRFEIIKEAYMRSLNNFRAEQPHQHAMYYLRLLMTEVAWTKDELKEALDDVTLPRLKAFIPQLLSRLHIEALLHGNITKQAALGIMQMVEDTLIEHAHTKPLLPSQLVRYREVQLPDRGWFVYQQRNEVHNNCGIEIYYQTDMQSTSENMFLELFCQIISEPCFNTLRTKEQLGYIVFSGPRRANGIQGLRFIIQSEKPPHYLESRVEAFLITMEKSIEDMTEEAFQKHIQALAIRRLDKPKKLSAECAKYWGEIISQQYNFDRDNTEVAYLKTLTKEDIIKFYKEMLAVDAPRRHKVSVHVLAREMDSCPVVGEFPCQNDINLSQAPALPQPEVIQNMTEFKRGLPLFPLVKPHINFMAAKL

[21] = target: DNA repair and recombination protein RAD54-like (Homo sapiens, UniProt Q92698); test: inhibitors of human RAD54 branch migration, confirmation, biochemical, fluorescence, cherry-picked samples, dose series (AID 651657); assay type: functional
[22] = Counterscreen for inhibitors of Trypanosoma brucei methionyl tRNA synthetase (MetRS): Luminescence-based cell-based high throughput dose response assay to identify compounds that are cytotoxic to Jurkat human T lymphocyte cells.; assay type: functional

T5 sequence (P65502 whole entry): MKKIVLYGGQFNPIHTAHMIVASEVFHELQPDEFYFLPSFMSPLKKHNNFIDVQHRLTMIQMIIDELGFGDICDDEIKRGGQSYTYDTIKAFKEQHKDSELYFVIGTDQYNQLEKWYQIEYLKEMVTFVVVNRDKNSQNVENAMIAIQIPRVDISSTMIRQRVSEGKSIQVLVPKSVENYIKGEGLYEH
T1 sequence (Q9P0U3 whole entry): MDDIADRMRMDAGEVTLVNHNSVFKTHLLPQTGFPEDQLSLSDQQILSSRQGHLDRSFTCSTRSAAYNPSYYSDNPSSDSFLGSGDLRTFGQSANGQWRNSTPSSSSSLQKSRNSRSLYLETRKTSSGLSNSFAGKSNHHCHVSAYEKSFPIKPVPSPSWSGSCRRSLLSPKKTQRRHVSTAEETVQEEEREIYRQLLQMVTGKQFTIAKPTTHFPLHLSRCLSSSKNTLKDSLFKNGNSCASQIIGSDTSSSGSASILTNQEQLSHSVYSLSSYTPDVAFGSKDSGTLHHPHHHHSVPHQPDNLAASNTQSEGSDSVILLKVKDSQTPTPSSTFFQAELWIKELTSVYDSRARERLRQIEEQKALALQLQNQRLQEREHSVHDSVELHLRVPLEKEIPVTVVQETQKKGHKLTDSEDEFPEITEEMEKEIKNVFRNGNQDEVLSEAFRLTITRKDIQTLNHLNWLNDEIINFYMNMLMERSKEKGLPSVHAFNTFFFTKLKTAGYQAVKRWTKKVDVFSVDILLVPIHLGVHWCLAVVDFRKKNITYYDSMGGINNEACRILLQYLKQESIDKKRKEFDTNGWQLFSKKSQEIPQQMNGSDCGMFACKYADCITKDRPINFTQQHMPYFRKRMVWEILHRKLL
T3 sequence (Q00975 whole entry): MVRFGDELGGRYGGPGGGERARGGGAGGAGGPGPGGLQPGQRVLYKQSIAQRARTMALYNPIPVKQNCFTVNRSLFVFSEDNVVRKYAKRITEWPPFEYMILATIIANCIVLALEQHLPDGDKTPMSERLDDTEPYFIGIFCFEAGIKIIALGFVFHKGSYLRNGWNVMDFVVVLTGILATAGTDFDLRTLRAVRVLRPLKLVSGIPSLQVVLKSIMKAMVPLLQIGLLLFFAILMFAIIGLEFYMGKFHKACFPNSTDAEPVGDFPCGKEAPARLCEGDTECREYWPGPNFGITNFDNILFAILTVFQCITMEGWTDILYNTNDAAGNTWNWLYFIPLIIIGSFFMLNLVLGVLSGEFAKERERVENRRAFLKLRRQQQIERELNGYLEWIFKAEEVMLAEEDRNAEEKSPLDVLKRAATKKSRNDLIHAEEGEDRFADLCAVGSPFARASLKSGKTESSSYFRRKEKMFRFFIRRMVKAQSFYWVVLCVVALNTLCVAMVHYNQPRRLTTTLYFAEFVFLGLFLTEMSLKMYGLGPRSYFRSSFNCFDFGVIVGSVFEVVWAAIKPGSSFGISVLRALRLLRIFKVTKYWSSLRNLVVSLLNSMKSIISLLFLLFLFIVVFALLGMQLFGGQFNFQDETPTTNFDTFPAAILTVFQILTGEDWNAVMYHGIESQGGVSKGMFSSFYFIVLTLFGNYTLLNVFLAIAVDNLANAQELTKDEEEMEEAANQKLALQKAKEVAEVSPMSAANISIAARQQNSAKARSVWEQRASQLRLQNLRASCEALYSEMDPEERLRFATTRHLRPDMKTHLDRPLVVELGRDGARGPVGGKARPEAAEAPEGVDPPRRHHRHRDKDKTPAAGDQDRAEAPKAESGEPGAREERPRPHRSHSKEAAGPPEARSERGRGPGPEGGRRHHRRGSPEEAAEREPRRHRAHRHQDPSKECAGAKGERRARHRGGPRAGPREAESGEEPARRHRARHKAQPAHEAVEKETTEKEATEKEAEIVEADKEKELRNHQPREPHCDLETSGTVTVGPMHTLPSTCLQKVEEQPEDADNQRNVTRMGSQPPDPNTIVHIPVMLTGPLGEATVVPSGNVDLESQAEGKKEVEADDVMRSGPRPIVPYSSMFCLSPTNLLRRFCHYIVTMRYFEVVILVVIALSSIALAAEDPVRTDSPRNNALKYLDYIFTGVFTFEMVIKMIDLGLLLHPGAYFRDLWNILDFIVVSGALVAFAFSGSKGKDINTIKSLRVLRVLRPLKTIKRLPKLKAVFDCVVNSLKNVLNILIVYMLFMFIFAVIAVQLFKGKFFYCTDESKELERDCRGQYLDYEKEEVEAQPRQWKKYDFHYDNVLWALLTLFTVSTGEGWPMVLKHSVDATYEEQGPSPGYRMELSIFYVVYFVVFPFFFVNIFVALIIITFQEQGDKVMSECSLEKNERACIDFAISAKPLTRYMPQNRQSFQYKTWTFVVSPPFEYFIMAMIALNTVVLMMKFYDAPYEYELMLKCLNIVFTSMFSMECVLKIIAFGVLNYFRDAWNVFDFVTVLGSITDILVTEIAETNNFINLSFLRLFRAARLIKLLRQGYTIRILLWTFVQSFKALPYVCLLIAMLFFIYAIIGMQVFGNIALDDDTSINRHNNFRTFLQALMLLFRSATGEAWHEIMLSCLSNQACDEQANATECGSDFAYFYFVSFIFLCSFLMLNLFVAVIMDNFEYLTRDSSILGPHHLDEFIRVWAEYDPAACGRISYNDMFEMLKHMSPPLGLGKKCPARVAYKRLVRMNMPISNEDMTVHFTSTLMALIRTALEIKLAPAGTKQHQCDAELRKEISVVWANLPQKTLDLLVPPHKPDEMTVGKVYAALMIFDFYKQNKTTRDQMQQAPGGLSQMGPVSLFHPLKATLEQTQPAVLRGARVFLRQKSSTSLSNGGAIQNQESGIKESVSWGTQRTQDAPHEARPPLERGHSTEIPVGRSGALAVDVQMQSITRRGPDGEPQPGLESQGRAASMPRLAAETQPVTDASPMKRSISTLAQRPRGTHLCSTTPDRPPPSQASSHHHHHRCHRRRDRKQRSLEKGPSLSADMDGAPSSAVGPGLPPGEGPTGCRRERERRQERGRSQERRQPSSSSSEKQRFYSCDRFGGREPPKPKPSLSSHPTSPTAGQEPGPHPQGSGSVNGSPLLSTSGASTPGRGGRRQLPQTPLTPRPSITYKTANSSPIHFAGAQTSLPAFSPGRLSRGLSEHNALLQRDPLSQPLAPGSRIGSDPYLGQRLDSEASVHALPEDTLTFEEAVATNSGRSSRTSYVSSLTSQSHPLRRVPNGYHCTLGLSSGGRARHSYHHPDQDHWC
T3 sequence (Q02410 whole entry): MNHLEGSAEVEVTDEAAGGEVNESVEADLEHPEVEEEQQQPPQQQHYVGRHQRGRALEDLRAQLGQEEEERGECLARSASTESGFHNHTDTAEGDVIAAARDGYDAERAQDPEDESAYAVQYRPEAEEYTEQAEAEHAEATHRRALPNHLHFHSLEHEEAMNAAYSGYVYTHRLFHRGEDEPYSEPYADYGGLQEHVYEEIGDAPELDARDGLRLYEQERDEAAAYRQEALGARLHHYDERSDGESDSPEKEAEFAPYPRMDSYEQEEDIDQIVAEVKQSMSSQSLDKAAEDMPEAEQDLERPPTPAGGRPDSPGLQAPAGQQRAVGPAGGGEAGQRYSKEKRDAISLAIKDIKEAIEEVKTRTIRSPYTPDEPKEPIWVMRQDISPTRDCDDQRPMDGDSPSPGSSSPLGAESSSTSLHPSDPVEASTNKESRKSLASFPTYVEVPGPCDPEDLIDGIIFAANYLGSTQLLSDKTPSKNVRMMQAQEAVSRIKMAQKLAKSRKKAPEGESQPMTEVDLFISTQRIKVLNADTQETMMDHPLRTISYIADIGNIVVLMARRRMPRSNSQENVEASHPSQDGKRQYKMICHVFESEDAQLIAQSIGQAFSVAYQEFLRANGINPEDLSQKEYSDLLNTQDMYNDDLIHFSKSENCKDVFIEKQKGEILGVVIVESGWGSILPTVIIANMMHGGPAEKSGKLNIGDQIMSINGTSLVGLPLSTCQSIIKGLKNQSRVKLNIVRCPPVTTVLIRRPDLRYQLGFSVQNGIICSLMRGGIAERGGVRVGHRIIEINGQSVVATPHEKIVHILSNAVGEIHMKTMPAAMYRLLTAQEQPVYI
Chain of Beta Lactamase (Q932Y6 whole entry): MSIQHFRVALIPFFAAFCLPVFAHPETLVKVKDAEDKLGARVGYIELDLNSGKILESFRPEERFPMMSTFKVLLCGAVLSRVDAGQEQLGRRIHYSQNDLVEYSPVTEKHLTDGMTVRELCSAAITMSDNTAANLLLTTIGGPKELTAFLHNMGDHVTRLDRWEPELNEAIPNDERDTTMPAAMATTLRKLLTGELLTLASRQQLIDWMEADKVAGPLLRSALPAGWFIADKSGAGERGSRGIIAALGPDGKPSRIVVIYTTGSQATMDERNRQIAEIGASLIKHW
Chain of 5-hydroxytryptamine receptor 2A (P35363 whole entry): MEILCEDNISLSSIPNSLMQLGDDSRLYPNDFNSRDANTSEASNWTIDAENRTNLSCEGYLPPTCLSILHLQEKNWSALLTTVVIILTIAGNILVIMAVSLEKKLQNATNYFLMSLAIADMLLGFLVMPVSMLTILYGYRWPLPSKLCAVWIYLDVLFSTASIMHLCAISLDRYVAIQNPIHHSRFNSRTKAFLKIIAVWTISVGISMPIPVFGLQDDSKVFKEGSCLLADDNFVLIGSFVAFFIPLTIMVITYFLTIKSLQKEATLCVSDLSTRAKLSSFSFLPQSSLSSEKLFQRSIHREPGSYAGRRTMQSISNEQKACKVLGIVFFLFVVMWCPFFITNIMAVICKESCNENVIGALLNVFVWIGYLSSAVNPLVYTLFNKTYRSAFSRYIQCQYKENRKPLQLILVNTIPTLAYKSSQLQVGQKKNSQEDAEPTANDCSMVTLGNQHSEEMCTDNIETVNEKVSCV
Chain of Beta-lactamase (Pseudomonas aeruginosa, UniProt Q79MP6) (Q79MP6 whole entry): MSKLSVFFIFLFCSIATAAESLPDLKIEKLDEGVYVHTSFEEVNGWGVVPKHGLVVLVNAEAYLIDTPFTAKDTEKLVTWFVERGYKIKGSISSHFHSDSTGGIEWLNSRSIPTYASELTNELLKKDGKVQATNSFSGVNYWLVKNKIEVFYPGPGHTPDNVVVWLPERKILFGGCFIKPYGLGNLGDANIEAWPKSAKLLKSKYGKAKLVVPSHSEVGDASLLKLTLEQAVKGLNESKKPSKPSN

SMILES: COc1ccc2c(C)cc(SCC(=O)N3CCOCC3)nc2c1
- IC50 (Prothrombin): 21.6 µM (active)
- IC50 [1]: 13.3 µM (active)
- IC50 [2]: > 100 µM (inactive)
- IC50 [3]: 7.01 µM (active)
- IC50 [4]: 9.61 µM (active)

SMILES: CC1=C(C)C[S+]([O-])N(S(=O)(=O)c2ccc(Cl)cc2)C1 (configuration not stated)
- IC50 [5]: 71.9 µM (active)
- IC50 [6]: 5.57 µM (active)
- IC50 (Beta Lactamase): 25.8 µM (inactive)
- IC50 [7]: > 80 µM (inactive)
- IC50 [8]: > 50 µM (inactive)
- IC50 (Large T antigen): 18.1 µM (active)
- IC50 [9]: 30.9 µM (active)
- IC50 [10]: > 93.1 µM (not active)

SMILES: O=C1/C(=C\c2cc(Cl)c(O)c(Cl)c2)SC(=S)N1Cc1ccccc1
- IC50 (Beta-lactamase [11]): 3.15 µM (active)
- IC50 (Beta-lactamase [12]): > 59.6 µM (inactive)
- EC50 [13]: 5.31 µM (active)

SMILES: CN(C)S(=O)(=O)c1cc(NC(=O)CN2CCN(c3ccccc3)CC2)ccc1Cl
- EC50 [14]: 30.5 µM (inactive)
- EC50 (Mu-type opioid receptor): 92.4 µM (inactive)

SMILES: Cc1ccc(-c2cc(-c3ccc(Cl)cc3)c(C#N)c(N)n2)o1
- IC50 [15]: 0.808 µM (active)
- IC50 [16]: 0.461 µM (active)
- IC50 [17]: > 64 µM (inactive)

SMILES: Clc1ccc2[nH]c3c(NCCCN4CCOCC4)ncnc3c2c1
- IC50 [18]: 11.3 µM (inactive)
- IC50 [19]: 9.1 µM (active)
- IC50 [20]: 14.3 µM (not active)
- IC50 (Insulin-degrading enzyme): 10.9 µM (not active)
- AC50 [21]: 33.7 µM (active)
- IC50 [22]: 59.8 µM (inactive)

— ChEMBL document CHEMBL1201862, “PubChem BioAssay data set” (2004)
